Source: patent publication EP2727627B1, “Oral and dental care and cleaning agents with Tocopherol acetate” (priority 2012, dated 2014)

What was measured:
[1] = tested on: Gingiva Fibroblasten; test: WST-1 vitality test (metabolic activity); format: cell-based; conditions: for Vitalität [%] Mittelwert: 24 h incubation, untreated control = 100 %, mean of 6
Excerpt: Als Maß für die Vitalität kann die metabolische Aktivität von Gingiva Fibroblasten nach Inkubation mit Tocopherylacetat gemessen werden. Das chromogene Tetrazoliumsalz WST-1 wird durch stoffwechselaktive Succinatdehydrogenasen lebender Zellen reduktiv aufgespalten, wobei ein wasserlösliches Formazansalz entsteht. Durch UV/VIS-spektroskopische Vermessung der Absorptionsintensität kann die Konzentration der intermediär gebildeten Formazansalze bestimmt werden, welche in Korrelation zur Aktivität der Succinatdehydrogenase steht.
(§1) Der WST-Vitalitätstest wurde in einer 96-Well Mikrotiterplatte in 6-fach Bestimmung durchgeführt. Dafür wurde pro Well eine definierte Zellzahl von Gingiva Fibroplasten in einem Volumen von 50 µl (microliter) ausgesät. Anschließend wurde Tocopherylacetat in absteigenden Konzentrationen dazugegeben. Nach 24 Stunden Inkubation wurden 10 µl des in Medium verdünnten Tetrazolium-Salzes WST-1 zu jedem Ansatz pipettiert. Es folgte eine dreistündige Inkubation bei 37°C und 5 % Kohlenstoffdioxid, bevor die Absorption bei einer Wellenlänge von 450 nm (Referenzwellenlänge 650 nm) in einem Spektrometer (ELISA-Reader) gemessen wurde. Die Werte der unbehandelten Kontrolle wurden gleich 100 % gesetzt und die Werte der behandelten Proben darauf bezogen.
Für jede Tocopherylacetat-Konzentration wurde eine 6-fach Bestimmung durchgeführt, aus den 6 Messwerten wurde jeweils der Mittelwert gebildet.
as §1, with “37 °C” for “37°C”

[2] = tested on: Gingiva Fibroblasten; test: ATP determination with ATPLite-M assay (cell energy content); format: cell-based
Excerpt: ATP (Adenosintriphosphat) ist die universelle Speicherform für chemische Energie in Zellen. Die ATP-Bestimmung erfolgt mit Hilfe des ATPLiteTM-M Assays (Packard). Das Testprinzip dieses Assays beruht darauf, dass die Luciferase von Photinus pyralis eine Reaktion katalysiert, bei der in Gegenwart von ATP D-Luciferin in Oxyluciferin umgewandelt wird. Bei dieser Reaktion wird grünes Licht emittiert, das mit einem Luminometer gemessen werden kann. Das emittierte Biolumineszenzlicht ist proportional zur Menge des vorhandenen ATP. Zur Bestimmung der ATP-Aktivität in Gingiva Fibroblasten werden diese in geeigneter Weise unter Erhalt ihrer spezifischen Eigenschaften vorkultiviert (DE10162814) und in eine 96well-Zellkulturschale überführt. Die Behandlung mit dem Substanzgemisch erfolgte über 24 Stunden gegen eine unbehandelte Kontrolle. Anschließend wurden die Zellen mit jeweils 50 µl/Kavität eines im Testkit enthaltenen Lysepuffer für 5 min auf einem Schüttler lysiert. Danach wurden die Zellen für weitere 5 min mit jeweils 50 µl/Kavität mit der mitgelieferten Substratlösung auf dem Schüttler inkubiert und anschließend das Reaktionsgemisch in eine schwarze Mikrotiterplatte überführt. Nach einer Inkubationszeit von 10 min in der Dunkelheit erfolgte die Messung. Tabelle 2: Einfluss von Tocopherylacetat auf den Zellenergieinhalt

[3] = Fibroblast, 24 h, read-out: Vitalität [%] Mittelwert
[4] = low concentrations, Gingiva-Zellen, result in words

Compound `CC(=O)Oc1c(C)c(C)c2c(c1C)CCC(C)(CCCC(C)CCCC(C)CCCC(C)C)O2` (stereo not shown) [Tocopherylacetat] has a viability at 0.0005 % [1, 3] of 133%, a viability at 0.001 % [1, 3] of 141% and a viability at 0.005 % [1, 3] of 138%. For the same compound, the viability at 0.01 % [1, 3] was 150%, the “Vitalität [%] Mittelwert” value ([1]; Konz. 0,01 Gew.-%) was 150,5% and the “Vitalität [%] Mittelwert” value ([1]; Konz. 0,0005 Gew.-%) was 132,9%. For the same compound, the “Vitalität [%] Mittelwert” value ([1]; Konz. 0,001 Gew.-%) was 141,4%, the “Vitalität [%] Mittelwert” value ([1]; Konz. 0,005 Gew.-%) was 137,7% and the Vitalität [1, 4] was “signifikanten Steigerung der Vitalität”. The activity at 0.01 % ([2]; Fibroblast, Konz. 0,01 Gew.-%, 24 h treatment, versus untreated control (100,0), read-out: ATP-Gehalt [%] Mittelwert) was 128%, the activity at 0.0025 % ([2]; Fibroblast, Konz. 0,0025 Gew.-%, 24 h treatment, versus untreated control (100,0), read-out: ATP-Gehalt [%] Mittelwert) was 125% and the activity at 0.005 % ([2]; Fibroblast, Konz. 0,005 Gew.-%, 24 h treatment, versus untreated control (100,0), read-out: ATP-Gehalt [%] Mittelwert) was 139%. The ATP-Gehalt [2, 4] was “signifikanten Steigerung des ATP-Gehaltes”.
